Measurements taken from US12472219B2, “Encapsulated cannabinoid formulations for transdermal delivery” (Nutrae, LLC, priority 2018, dated 2025).

Test: Encapsulation efficiency by ultracentrifugation and HPLC

Compound	encapsulation efficiency of CBD (% EE) (active ingredient 1% (w/w), oleic acid and polysorbate 20 preparation) [%]	encapsulation efficiency, THC compared with CBD (tested concentrations 6% and 10% (w/w), oleic acid and polysorbate 20)
C=C(C)[C@@H]1CCC(C)=C[C@H]1c1c(O)cc(CCCCC)cc1O [CBD, cannabidiol]	80.11	
CCCCCc1cc(O)c2c(c1)OC(C)(C)[C@@H]1CCC(C)=C[C@@H]21 [THC, Δ9-tetrahydrocannabinol]		generally higher for THC over CBD
